Reference: US10537650B2, “Molecular probes for multimodality imaging and tracking of stem cells” (University of Massachusetts, priority 2012, dated 2020)
Values joined by “and” are separate entries in the source; they are usually repeats but may differ in a detail not shown here. Equal entries are not always repeated.

Tests used:
LS174T cells [1] = test: Dye transfer: co-culture of dye labeled and unlabeled LS174T cells, flow cytometry; type: cell-based, human
Experimental: (§1) The human colon cancer cell line LS174T was used here as a model to identify the optimal dyes marker with minimal transfer to neighbor cells for cell tracking. A family of DiD dyes (Ex: 648 nm, Em: 667 nm) with variable lipophilic aliphatic tails (Cm/Cn here refer to lengths lipophilic aliphatic tails in the number of C atoms) were investigated: MT279 (C22/C3), MT280 (C22/C12), MT284 (C14/C3), MT285 (C14/C14), CN1012 (C20/C20), MTTI-157 without the DOTA (C22/C22). LS174T cells were cultured in minimal essential medium (MEM) with nonessential amino acids, 10% fetal bovine serum (FBS) and 1% penicillin/streptomycin at 37° C. in a humidified atmosphere with 5% CO2 and were passaged weekly.
LS174T cells were trypsinized, collected, and washed twice with MEM without serum and labeled with the six dyes according to the method described above. […] Study sets are described below. One (1) ml of the cell suspension was added rapidly to 1 ml of 2× working dye solution and immediately mixed by pipetting. […] Subsequently, the cells suspension was spun at 400 g for 10 min. […] The cell viability was determined by trypan blue staining. The dye labeled cells were co-cultured with an equal number of unlabeled cells under normal culture conditions. Samples were removed at 0 h, 24 h and 48 h after initiation of co-culture and fixed in 2% paraformaldehyde for flow cytometry analysis.

LS174T cells [2] = test: Flow cytometry of LS174T cells labeled with MTTI-157: labeling efficiency under different conditions; type: cell-based, human; conditions: for labeling efficiency: Set 1, dye dissolved in ethanol
Experimental: The method for LS174T cells labeling with MTTI-157 was as described as before. Briefly, LS174T cells were trypsinized, collected, and washed twice with MEM without serum and then resuspended in Diluent C. Immediately, prior to staining; a 2× working dye stock solution in Diluent C was prepared. The cell suspension was added rapidly to an equal volume of the 2× working dye solution and immediately mixed by pipetting up. […] Subsequently, the cell suspension was spun at 400 g for 5 min. […] After labeling, the labeled cells were fixed in 2% paraformaldehyde and analyzed by flow cytometry.
MTTI-157 was dissolved in ethanol at the concentration of 2 μg/μL.
MTTI-157 was dissolved in DMSO at the concentration of 2 μg/μL.

LS174T cells [3] = test: Optimization of dye concentrations: flow cytometry of LS174T cells labeled with six DiD dyes; type: cell-based, human
Experimental: as §1
Four working dye stock solutions were investigated. LS174T cells were trypsinized, collected, and washed twice with MEM without serum when the flask was 90% confluent. […] Immediately, prior to staining, 2× working dye stock solutions (1 μM, 4 μM, 10 μM or 20 μM) in Diluent C were prepared. Then 500 μl of cell suspension was added rapidly into 500 μl of 2× working dye and immediately mixed by pipetting. […] The labeled cells were fixed in 2% paraformaldehyde and analyzed by flow cytometry.

Wild type mES cells BL/6 = test: Flow cytometry of BL/6 mES cells labeled with MTTI-157 (percent labeled cells); type: cell-based, mouse
Description: Unlabeled BL/6 cells were used as a control.

TC1 wild type mES cells = test: Culture and fluorescence microscopy of MTTI-157 labeled TC1 mES cells; type: cell-based, mouse; conditions: through Day 4, 2 μM and 10 μM dye
Experimental: The MTTI-157 labeled mES cells were seeded into 12-well plates with about 0.5×10^6 cells per well to grow under normal culture conditions to evaluate cell viability, differentiation, fluorescence dye stability, and dye partitioning to daughter cells over time. Unlabeled normal TC1 wild type mES cells were used as control. The cell associated fluorescence was detected from the plates on an Olympus IX 70 Inverted Light Microscope (Olympus America, Inc., NY) using a Cy5 filter on Days 0, 1 and 4 after seeding.
After dye labeling, the trypan blue staining was performed to detect cell viability. […] The fluorescence is shown in red and paired with the phase-contrast image on its right. […] It is obvious from Rows 2 and 3 that the MTTI-157 incorporated into the mES cells. […] By the next day (Day 1), the cells begin to merge forming clones, as expected, and the fluorescence is seen distributed within the clones with passage to other members of the cell cluster, i.e., the daughter cells. On Day 4, the cell clusters are now larger and more cells within the cluster appear to carry the fluorescence signal.

`CCCCCCCCCCCCCCCCCCCCCCN1C(=CC=CC=CC2=[N+](CCCCCCCCCCCCCCCCCCCCCC)c3ccc(CNC(=O)CN4CCN(CC(=O)O)CCN(CC(=O)O)CCN(CC(=O)O)CC4)cc3C2(C)C)C(C)(C)c2ccccc21.[I-]` [MTTI-157] was tested, and the “Percent of unlabeled cells incorporating dye from labeled cells compared to the value at 0 h” value (“Percent … to the value at 0 h” below) (LS174T cells [1]; Set 1, 2 μM dye, 24 h of co-culture) was 22.39%, the “Percent … to the value at 0 h” value (LS174T cells [1]; Set 1, 2 μM dye, 48 h of co-culture) was 22.74% and the “Percent … to the value at 0 h” value (LS174T cells [1]; Set 2, 10 μM dye, 24 h) was 22% and 22.17%. For the same compound, the “Percent … to the value at 0 h” value (LS174T cells [1]; Set 2, 10 μM dye, 48 h) was 28% and 28.45%, the “Percent … to the value at 0 h” value (LS174T cells [1]; Set 3, 5 μM dye, 24 h) was 6.93% and the “Percent … to the value at 0 h” value (LS174T cells [1]; Set 3, 5 μM dye, 48 h) was 22.16%. For the same compound, the “dye transfer to unlabeled cells (in words)” value (LS174T cells [1]; Set 4, 0.5 μM dye) was “dye transfer took place”, the “Percent of unlabeled cells incorporating dye from labeled cells compared to that at 0 h” value (shortened to “Percent … to that at 0 h”) (LS174T cells [1]; Set 4, 0.5 μM dye, 24 h) was 13.58% and the “Percent … to that at 0 h” value (LS174T cells [1]; Set 4, 0.5 μM dye, 48 h) was 14.675%. The “Percent … to that at 0 h” value (LS174T cells [1]; Set 4, 2 μM dye, 24 h) was 23.555%, the “Percent … to that at 0 h” value (LS174T cells [1]; Set 4, 2 μM dye, 48 h) was 25.615% and the labeling efficiency (LS174T cells [2]; final dye concentration 10 μM) was “about 60%”. For the same compound, the labeling efficiency (LS174T cells [2]; highest final dye concentration of 20 μM) was “about 70%”, the “% labeled cells in total cells by FACS” value (LS174T cells [2]; dye dissolved in DMSO, final dye 10 μM, final cells 10 ×10^7/ml, DMSO in 2x working dye stock 2%) was 97.3% and the “% labeled cells in total cells by FACS” value (LS174T cells [2]; dye dissolved in DMSO, final dye 20 μM, final cells 10 ×10^7/ml, DMSO in 2x working dye stock 4%) was 97.9%. For the same compound, the “% labeled cells in total cells by FACS” value (LS174T cells [2]; dye dissolved in DMSO, final dye 20 μM, final cells 20 ×10^7/ml, DMSO in 2x working dye stock 4%) was 98.6%, the “% labeled cells in total cells by FACS” value (LS174T cells [2]; dye dissolved in DMSO, final dye 40 μM, final cells 10 ×10^7/ml, DMSO in 2x working dye stock 8%) was 99.2% and the “% labeled cells in total cells by FACS” value (LS174T cells [2]; dye dissolved in DMSO, final dye 40 μM, final cells 20 ×10^7/ml, DMSO in 2x working dye stock 8%) was 98.5%. The “% labeled cells in total cells by FACS” value (LS174T cells [2]; dye dissolved in DMSO, final dye 80 μM, final cells 10 ×10^7/ml, DMSO in 2x working dye stock 16%) was 99.5%, the “% labeled cells in total cells by FACS” value (LS174T cells [2]; dye dissolved in ethanol, final dye 2 μM, final cells 1 ×10^7/ml, DMSO in 2x working dye stock 0%) was 12.6% and the “% labeled cells in total cells by FACS” value (LS174T cells [2]; dye dissolved in ethanol, final dye 2 μM, final cells 1 ×10^7/ml, DMSO in 2x working dye stock 2%) was 23.7%. For the same compound, the “% labeled cells in total cells by FACS” value (LS174T cells [2]; dye dissolved in ethanol, final dye 2 μM, final cells 10 ×10^7/ml, DMSO in 2x working dye stock 0%) was 29.5%, the “% labeled cells in total cells by FACS” value (LS174T cells [2]; dye dissolved in ethanol, final dye 10 μM, final cells 1 ×10^7/ml, DMSO in 2x working dye stock 0%) was 62.7% and the “% labeled cells in total cells by FACS” value (LS174T cells [2]; dye dissolved in ethanol, final dye 10 μM, final cells 1 ×10^7/ml, DMSO in 2x working dye stock 2%) was 55.9%. For the same compound, the “% labeled cells in total cells by FACS” value (LS174T cells [2]; dye dissolved in ethanol, final dye 10 μM, final cells 10 ×10^7/ml, DMSO in 2x working dye stock 0%) was 57.9%, the “% labeled cells in total cells by FACS” value (LS174T cells [2]; dye dissolved in ethanol, final dye 20 μM, final cells 1 ×10^7/ml, DMSO in 2x working dye stock 0%) was 74.3% and the “% labeled cells in total cells by FACS” value (LS174T cells [2]; dye dissolved in ethanol, final dye 20 μM, final cells 1 ×10^7/ml, DMSO in 2x working dye stock 2%) was 71.1%. The “% labeled cells in total cells by FACS” value (LS174T cells [2]; dye dissolved in ethanol, final dye 20 μM, final cells 10 ×10^7/ml, DMSO in 2x working dye stock 0%) was 75.0%, the “percent of cells labeled” value (LS174T cells [3]; dye concentration 0.5 μM) was 71.5% and the “percent of cells labeled” value (LS174T cells [3]; dye concentration 2 μM) was 92.3%. For the same compound, the “percent of cells labeled” value (LS174T cells [3]; dye concentration 5 μM) was 98.6%, the “percent of cells labeled” value (LS174T cells [3]; dye concentration 10 μM) was 99.4% and the “percent of labeled cells in total cells” value (Wild type mES cells BL/6; 2 μM dye) was 9.8%. For the same compound, the “percent of labeled cells in total cells” value (Wild type mES cells BL/6; 10 μM dye) was 28.7%, the “percent of labeled cells in total cells” value (Wild type mES cells BL/6; 20 μM dye) was 34% and the “effects on cellular differentiation” value (TC1 wild type mES cells) was “no obvious effects on cellular differentiation”.
